According to US20070173462A1, “Treatment of diseases associated with the use of antibiotics” (Optimer Pharmaceuticals, Inc., priority 2004, published 2007):
≈ marks a conversion by molar mass, not a printed value.

How the values were obtained:
toxigenic C. difficile = experiment: Hamster model of clindamycin-induced Clostridium difficile associated diarrhea/colitis; type: in vivo, Syrian hamsters; details: oral treatment for 7 days; untreated infection uniformly fatal between days two and six
Method: Animals were treated with two oral doses of clindamycin at 100 mg/kg. Three days after the second dose of clindamycin, they were inoculated with toxigenic C. difficile spores. […] Animals were observed daily for the presence or absence of diarrhea. Necropsies were performed on some animals that died during the experiment, and cecal contents were assayed for C. difficile toxin A. Hamsters were monitored for 20 days, and the cumulative mortality during this period was recorded (FIG. 1).

C. difficile = experiment: microbe, parasite or virus in culture; type: cell-based; details: clinical isolates, n=23
[1] = test system: Other anaerobic Gram negative rods; experiment: organism not typed; type: cell-based; details: clinical gastrointestinal isolates, n=51
[2] = test system: Anaerobic Gram positive cocci; experiment: organism not typed; type: cell-based; details: clinical gastrointestinal isolates, n=49
Stephylococcus sp. = experiment: organism not typed; type: cell-based; details: clinical gastrointestinal isolates, n=19
Eschericia coli = experiment: organism not typed; type: cell-based; details: clinical gastrointestinal isolates, n=10
[3] = test system: Streptococcus milleri group; experiment: microbe, parasite or virus in culture; type: cell-based; details: clinical gastrointestinal isolates, n=14
C. paraputrificum = experiment: microbe, parasite or virus in culture; type: cell-based; details: clinical isolates, n=10
Klebsiella sp. = experiment: microbe, parasite or virus in culture; type: cell-based; details: clinical gastrointestinal isolates, n=10
Streptococcus sp. = experiment: microbe, parasite or virus in culture; type: cell-based; details: clinical gastrointestinal isolates, n=9
Enterobacter sp. = experiment: microbe, parasite or virus in culture; type: cell-based; details: Enterobacter; clinical gastrointestinal isolates, n=20
C. bolteae = experiment: microbe, parasite or virus in culture; type: cell-based; details: clinical isolates, n=6
[4] = test system: Bacteroides fragilis group; experiment: microbe, parasite or virus in culture; type: cell-based; details: clinical gastrointestinal isolates, n=54
C. ramosum = experiment: microbe, parasite or virus in culture; type: cell-based; details: clinical isolates, n=10
Other Clostridium sp. = experiment: microbe, parasite or virus in culture; type: cell-based; details: clinical isolates, n=11
Veillonella sp. = experiment: microbe, parasite or virus in culture; type: cell-based; details: Veillonella; clinical gastrointestinal isolates, n=10
C. glycolicum = experiment: microbe, parasite or virus in culture; type: cell-based; details: clinical isolates, n=9
Enterococcus sp. = experiment: microbe, parasite or virus in culture; type: cell-based; details: clinical gastrointestinal isolates, n=22
Clostridium difficile = experiment: MIC, 207 clinical isolates of C. difficile; type: cell-based; details: clinical isolates, n=207
Text: Compound I was additionally tested against anaerobic clinical isolates and against aerobic bacteria. […] The compound was also active against clinical strains of Staphylococcus sp. and Enterococcus sp.

C. innocuum = experiment: microbe, parasite or virus in culture; type: cell-based; details: clinical isolates, n=9
[5] = test system: Non-spore forming Gram positive rods; experiment: organism not typed; type: cell-based; details: clinical gastrointestinal isolates, n=64
C. clostridioforme = experiment: organism not typed; type: cell-based; details: clinical isolates, n=5
Pseudomonas aeruginosa = experiment: microbe, parasite or virus in culture; type: cell-based; details: clinical gastrointestinal isolates, n=10
Proteus mirabilis = experiment: microbe, parasite or virus in culture; type: cell-based; details: clinical gastrointestinal isolates, n=10
C. perfringens = experiment: microbe, parasite or virus in culture; type: cell-based
C. sordellii = experiment: microbe, parasite or virus in culture; type: cell-based; details: clinical isolates, n=5

CN[C@H](CC(C)C)C(=O)N[C@H]1C(=O)N[C@@H](CC(N)=O)C(=O)N[C@H]2C(=O)N[C@H]3C(=O)N[C@H](C(=O)N[C@H](C(=O)O)c4cc(O)cc(O)c4-c4cc3ccc4O)[C@H](O)c3ccc(c(Cl)c3)Oc3cc2cc(c3O[C@@H]2O[C@H](CO)[C@@H](O)[C@H](O)[C@H]2O[C@H]2C[C@](C)(N)[C@H](O)[C@H](C)O2)Oc2ccc(cc2Cl)[C@H]1O [Vancomycin]
protection from infection (cumulative mortality over 20 days) (toxigenic C. difficile): protected the animals from infection | MIC50 (C. difficile; Clostridioides difficile): 1 µg/mL (≈ 0.69 µM) | MIC90 (C. difficile; Clostridioides difficile): 2 µg/mL (≈ 1.38 µM) | Range (MIC) (C. difficile): 0.5-4^ μg/mL | MIC50 [1]: 512 µg/mL (≈ 353 µM) | MIC90 [1]: > 1020 µg/mL | MIC50 [2]: 1 µg/mL (≈ 0.69 µM) | MIC90 [2]: 8 µg/mL (≈ 5.52 µM) | MIC50 (Stephylococcus sp.): 2 µg/mL (≈ 1.38 µM) | MIC90 (Stephylococcus sp.): 4 µg/mL (≈ 2.76 µM) | Range (MIC) (Stephylococcus sp.): 1 to 4 µg/mL | MIC50 (Eschericia coli): 512 µg/mL (≈ 353 µM) | MIC90 (Eschericia coli): > 1020 µg/mL | MIC50 ([3]; Streptococcus milleri): 1 µg/mL (≈ 0.69 µM) | MIC90 ([3]; Streptococcus milleri): 1 µg/mL (≈ 0.69 µM) | Range (MIC) [3]: 1 µg/mL | MIC50 (C. paraputrificum; Clostridium paraputrificum): 2 µg/mL (≈ 1.38 µM) | MIC90 (C. paraputrificum; Clostridium paraputrificum): 2 µg/mL (≈ 1.38 µM) | Range (MIC) (C. paraputrificum): 1 to 2 µg/mL | MIC50 (Klebsiella sp.; Klebsiella): > 1020 µg/mL | MIC90 (Klebsiella sp.; Klebsiella): > 1020 µg/mL | Range (MIC) (Klebsiella sp.): >1024 µg/mL | MIC50 (Streptococcus sp.; Streptococcus): 0.5 µg/mL (≈ 0.345 µM) | MIC90 (Streptococcus sp.; Streptococcus): 1 µg/mL (≈ 0.69 µM) | Range (MIC) (Streptococcus sp.): 0.5 to 1 µg/mL | MIC50 (Enterobacter sp.): > 1020 µg/mL | MIC90 (Enterobacter sp.): > 1020 µg/mL | MIC50 (C. bolteae; Enterocloster bolteae): 16 µg/mL (≈ 11 µM) | MIC90 (C. bolteae; Enterocloster bolteae): 16 µg/mL (≈ 11 µM) | Range (MIC) (C. bolteae): 1 to 16 µg/mL | MIC50 ([4]; Bacteroides fragilis): 64 µg/mL (≈ 44.2 µM) | MIC90 ([4]; Bacteroides fragilis): 128 µg/mL (≈ 88.3 µM) | Range (MIC) [4]: 16 to 256 µg/mL | MIC50 (C. ramosum; Thomasclavelia ramosa): 4 µg/mL (≈ 2.76 µM) | MIC90 (C. ramosum; Thomasclavelia ramosa): 8 µg/mL (≈ 5.52 µM) | Range (MIC) (C. ramosum): 4 to 8 µg/mL | MIC50 (Other Clostridium sp.; Clostridium): 1 µg/mL (≈ 0.69 µM) | MIC90 (Other Clostridium sp.; Clostridium): 16 µg/mL (≈ 11 µM) | Range (MIC) (Other Clostridium sp.): 1 to 64 µg/mL | MIC50 (Veillonella sp.): 512 µg/mL (≈ 353 µM) | MIC90 (Veillonella sp.): 512 µg/mL (≈ 353 µM) | MIC50 (C. glycolicum; Terrisporobacter glycolicus): 1 µg/mL (≈ 0.69 µM) | MIC90 (C. glycolicum; Terrisporobacter glycolicus): 1 µg/mL (≈ 0.69 µM) | Range (MIC) (C. glycolicum): 0.5-1^ μg/mL | MIC50 (Enterococcus sp.; Enterococcus): 1 µg/mL (≈ 0.69 µM) | MIC90 (Enterococcus sp.; Enterococcus): 4 µg/mL (≈ 2.76 µM) | Range (MIC) (Enterococcus sp.): 0.5-4 ^ μg/mL | MIC90 (Clostridium difficile; Clostridioides difficile): 0.5 µg/mL (≈ 0.345 µM) | MIC50 (Clostridium difficile; Clostridioides difficile, read-out: MIC50): 0.5 µg/mL (≈ 0.345 µM) | Range (MIC) (Clostridium difficile): 0.0156-0.5 | MIC50 (C. innocuum; [Clostridium] innocuum): 16 µg/mL (≈ 11 µM) | MIC90 (C. innocuum; [Clostridium] innocuum): 16 µg/mL (≈ 11 µM) | Range (MIC) (C. innocuum): 8 to 16 µg/mL | MIC50 [5]: 128 µg/mL (≈ 88.3 µM) | MIC90 [5]: > 1020 µg/mL | MIC50 (C. clostridioforme): 1 µg/mL (≈ 0.69 µM) | MIC90 (C. clostridioforme): 8 µg/mL (≈ 5.52 µM) | Range (MIC) (C. clostridioforme): 1 to 8 µg/mL | MIC50 (Pseudomonas aeruginosa): > 1020 µg/mL | MIC90 (Pseudomonas aeruginosa): > 1020 µg/mL | MIC50 (Proteus mirabilis; Proteus mirabilis): > 1020 µg/mL | MIC90 (Proteus mirabilis; Proteus mirabilis): > 1020 µg/mL | Range (MIC) (Proteus mirabilis): >1024 µg/mL | Range (MIC) (C. perfringens): 0.5-1^ μg/mL | MIC50 (C. perfringens; Clostridium perfringens): 1 µg/mL (≈ 0.69 µM) | MIC90 (C. perfringens; Clostridium perfringens): 1 µg/mL (≈ 0.69 µM) | MIC50 (C. sordellii; Paraclostridium sordellii): 1 µg/mL (≈ 0.69 µM) | MIC90 (C. sordellii; Paraclostridium sordellii): 1 µg/mL (≈ 0.69 µM) | Range (MIC) (C. sordellii): 1 µg/mL
